{"source": "paper PMC10141076", "about": "“Steroids and Fatty Acid Esters from Cyperus sexangularis Leaf and Their Antioxidant, Anti-Inflammatory and Anti-Elastase Properties” (Molecules, 2023)", "key": {"[1]": {"assay": "Nitric oxide (NO) inhibition assay (sodium nitroprusside/Griess)", "conditions": "mean ± SEM, n = 3; 540 nm", "method": "The inhibitory effect of the isolated compounds against the NO radical was investigated using the method described by Jimoh et al.. The compounds were prepared in varying concentrations from 100.00–6.25 µg/mL. They were added to 0.2 Mm (2 mL) of sodium nitroprusside in triplicates."}, "[2]": {"assay": "DPPH spectrophotometric assay (radical scavenging)", "conditions": "mean ± SEM, n = 3; 30 min, 37 °C, 515 nm", "method": "This was performed by following a previously reported conventional method, with some modifications. Here, 0.5 mL of 0.1Mm DPPH radical in methanol was added to 0.5 mL of serially diluted CS-isolated compounds and L-ascorbic acid at 100.00, 50.00, 25.00, 12.50 and 6.25 µg/mL concentration range in triplicate. The reaction mixture was incubated in the dark at 37 °C for 30 min. The absorbance was measured at 515 nm on a microplate reader. The percentage inhibition of the radical was calculated thus: % DPPH inhibition=(ABScontrol−ABSsample/ABScontrol)×100 where ABSsample = Absorbance of test sample, while ABScontrol = Absorbance of negative control (2% DMSO)."}, "[3]": {"assay": "Ferric reducing antioxidant power (FRAP) assay", "conditions": "ascorbic acid equivalent; mean ± SEM, n = 3; 700 nm", "method": "The reducing antioxidant capacity of each isolated compound was evaluated according to the method of Kumar and Pandey, with some modifications. The compounds were dissolved in 2% DMSO and added to the mixture containing 0.25 mL of phosphate buffer (0.2 M; pH 6.6) and 0.25 mL of potassium ferricyanide [K3Fe(CN)6] (1% w/v). Standard compounds used were L (+)-Ascorbic acid. The resulting mixture was incubated at 50 °C for 20 min, followed by the addition of 0.25 mL of CCl3COOH (10% w/v) and then centrifuged at 3000 rpm for 10 min. The upper layer of the solution was mixed with 1 mL of 2% DMSO and the same amount and 0.5 mL of FeCl3 (0.1%, w/v). The experiment was conducted in triplicate, and absorbance was measured at 700 nm on a microplate reader against a blank sample of only phosphate buffer. Thus, the ferric reducing power of the isolated compounds at 100.00, 50.00, 25.00, 12.50 and 6.25 µg/mL concentration in methanol were determined as ascorbic acid equivalent (AAE) from the calibration curve of the positive control (L-ascorbic acid)."}, "egg albumin": {"tested_on": "egg albumin", "assay": "In vitro anti-inflammatory test: egg albumin denaturation (EAD) assay", "format": "biochemical, chicken", "method": "The test was carried out using the egg albumin denaturation assay method reported by Chatterjee et al.. […] The mixture was incubated at 37 °C for 15 min away from direct light and thereafter boiled at 70 °C for 5 min in a thermostatic water bath. The resulting mixture was cooled, and the absorbance was measured at 655 nm on a microplate reader."}, "[4]": {"molecular_target": "T1, porcine pancreatic elastase (PPE) (Sus scrofa, UniProt P00772)", "T1 construct": "purchased Sigma", "T1 sequence (P00772 27-266)": "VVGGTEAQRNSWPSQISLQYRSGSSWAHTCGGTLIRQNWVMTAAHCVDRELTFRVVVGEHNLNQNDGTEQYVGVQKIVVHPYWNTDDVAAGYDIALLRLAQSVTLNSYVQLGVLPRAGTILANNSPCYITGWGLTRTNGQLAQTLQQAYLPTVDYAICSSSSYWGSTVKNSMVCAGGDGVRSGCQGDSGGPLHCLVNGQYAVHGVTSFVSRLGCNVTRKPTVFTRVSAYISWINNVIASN", "assay": "Anti-elastase assay (release of p-nitroaniline from N-succinyl-ala-ala-ala-p-nitroanilide)", "format": "biochemical", "conditions": "n = 3; text says elastase in HaCaT cells, method uses PPE; read-out: Anti-Elastase Activity (IC50 ± SD) (converted)", "method": "All reagents, solvents, silica gel for TLC and silica gel for column chromatography were purchased from Sigma-Aldrich (Pty) Ltd. (Johannesburg, South Africa) and Merck (Pty) Ltd. (Johannesburg, South Africa) through a licenced local supplier, Shalom Laboratories and Supplies, South Africa. Antioxidant absorbance were measured on a 680-Bio-Rad Microplate Reader (Serial Number 14966, Irvine, CA, USA), while the anti-elastase activity was monitored on a Perkin Elmer VICTOR Nivo microplate reader ([…]). Isolated compounds were analyzed with a 600 MHz Bruker Biospin GmbH spectrometer (Bruker, Rheinstetten, Germany) and a 400 MHz VARIAN NMR spectrometer (Agilent Technologies Inc., Santa Clara, CA, USA). Chemical shift (δ) was recorded in part per million (ppm). The spectrum range was set at 0–14 ppm for 1H NMR, while that of ^13C NMR was set at 0–220 ppm. Tetramethyl silane was used as the internal standard and compounds were read in deuterated chloroform and benzene, as well as benzene-d6 in trifluorotoluene (TFT). High-resolution mass spectrometry (HRMS) was performed with a Waters API Q-TOF Ultima spectrometer (Waters Corporation, Manchester, UK) situated in Stellenbosch University, Stellenbosch, South Africa. […]\nThe ability of each isolated compound to inhibit porcine pancreatic elastase (PPE) (Sigma) was determined by measuring the release of p-nitroaniline from N-succinyl-ala-ala-ala-p-nitroanilide spectrophotometrically at 405nm according to the method of Bieth et al. and modified according to the method of Fibrich et al.. The reaction mixture contained 100mM Tris buffer (pH 8.0), 0.5M HCl; the test sample was serially diluted in DMSO to yield seven concentrations ([…]) to which PPE ([…]) was added and incubated for 15 min, followed by the addition of N-succinyl-ala-ala-ala-p-nitroanilide (4mM). The change in the absorbance of the reaction mixture was measured for 15 min, from which the rate was obtained. One unit of elastastolytic activity is defined as the release of 1 µM of p-nitroaniline/min. Ursolic acid was included as the positive drug control, as well as a vehicle control containing 2% DMSO and two negative controls (one in which no enzyme was added and the other in which no substrate was added). An IC50, or concentration at which 50% of the enzyme activity is inhibited was calculated using GraphPad Prism 4 (GraphPad Software, San Diego, CA, USA)."}}, "note": "“And” between values parts separate entries of the source, which are not always exact repeats. Equal entries are not always repeated. Marks after values point to notes of the source that are not given here."}
{"smiles": "O=C1O[C@H]([C@@H](O)CO)C(O)=C1O", "note": "[ASC, L-ascorbic acid, reference compound]", "values": [{"measurement": "NO (IC50 ± SEM)", "setting": "[1]", "value": "21.89 ± 1.32 ^a µg/mL"}, {"measurement": "DPPH (IC50 ± SEM)", "setting": "[2]", "value": "8.92 ± 1.26 ^a µg/mL"}]}
{"smiles": "CC[C@H](C=C[C@@H](C)[C@H]1CC[C@H]2[C@@H]3CC=C4CC(O)CC[C@]4(C)[C@H]3CC[C@]12C)C(C)C", "note": "(stereo partly shown) [Compound 1, stigmasta-5,22-dien-3-ol]", "values": [{"measurement": "NO (IC50 ± SEM)", "setting": "[1]", "value": "68.56 ± 4.03 ^bc µg/mL"}, {"measurement": "FRAP", "setting": "[3]", "value": "303.58 ± 10.33 µgAAE/mg and 303.58 ± 10.33 ^c µgAAE/mg"}, {"measurement": "inhibition of egg albumin denaturation", "setting": "egg albumin; at 6.25 µg/mL (lowest concentration)", "value": "51.03 ± 10.36", "unit": "%"}, {"measurement": "inhibition of egg albumin denaturation", "setting": "egg albumin; at 6.25 µg/mL (lowest concentration), listed as stigmasterol", "value": 50, "unit": "%"}, {"measurement": "inhibition of egg albumin denaturation", "setting": "egg albumin; at 25 µg/mL (median concentration)", "value": "up to 70%"}, {"measurement": "IC50", "setting": "[4]", "value": "> 121", "unit": "µM"}, {"measurement": "DPPH (IC50 ± SEM)", "setting": "[2]", "value": "38.18 ± 2.30 ^bc µg/mL"}]}
{"smiles": "C=CC(C)C1CCC2C1CCC1C3CCCCC3CCC12", "note": "(stereo not shown) [Compound 2, 17-(1-methyl-allyl)-hexadecahydro-cyclopenta[a] phenanthrene]", "values": [{"measurement": "NO (IC50 ± SEM)", "setting": "[1]", "value": "105.73 ± 7.48 ^d µg/mL"}, {"measurement": "FRAP", "setting": "[3]", "value": "196.21 ± 13.79 ^a µgAAE/mg"}, {"measurement": "inhibition of egg albumin denaturation, rank in words", "setting": "egg albumin; across all concentrations (100–6.25 µg/mL), p < 0.05", "value": "least active among all the compounds tested"}, {"measurement": "IC50", "setting": "[4]", "value": "> 349", "unit": "µM"}, {"measurement": "DPPH (IC50 ± SEM)", "setting": "[2]", "value": "57.63 ± 1.62 ^e µg/mL"}]}
{"smiles": "CC[C@H](CC[C@@H](C)[C@H]1CC[C@H]2[C@@H]3CC=C4C[C@@H](O)CC[C@]4(C)[C@H]3CC[C@]12C)C(C)C", "note": "[Compound 3, β-sitosterol]", "values": [{"measurement": "IC50", "setting": "[4]", "value": "> 121", "unit": "µM"}]}
{"smiles": "CCCCCCCCCCCC(=O)O", "note": "[Compound 4, dodecanoic acid]", "values": [{"measurement": "NO (IC50 ± SEM)", "setting": "[1]", "value": "65.04 ± 3.20 ^b µg/mL"}, {"measurement": "FRAP", "setting": "[3]", "value": "245.94 ± 22.81 ^b µgAAE/mg"}, {"measurement": "IC50", "setting": "[4]", "value": "> 250", "unit": "µM"}, {"measurement": "DPPH (IC50 ± SEM)", "setting": "[2]", "value": "35.99 ± 2.13 ^b µg/mL"}]}
{"smiles": "CCCCCCCCCCCCCCCCCCC(=O)OCC", "note": "[Compound 5, ethyl nonadecanoate]", "values": [{"measurement": "NO (IC50 ± SEM)", "setting": "[1]", "value": "69.74 ± 3.06 ^bc µg/mL"}, {"measurement": "FRAP", "setting": "[3]", "value": "243.40 ± 19.72 ^b µgAAE/mg"}, {"measurement": "IC50", "setting": "[4]", "value": "≥ 153", "unit": "µM"}, {"measurement": "DPPH (IC50 ± SEM)", "setting": "[2]", "value": "43.82 ± 1.44 ^c µg/mL"}]}
{"smiles": "CCCCCCCCCCCCCCCCCC(=O)OCC", "note": "[Compound 6, ethyl stearate]", "values": [{"measurement": "NO (IC50 ± SEM)", "setting": "[1]", "value": "95.99 ± 4.93 ^d µg/mL"}, {"measurement": "FRAP", "setting": "[3]", "value": "190.92 ± 11.68 ^a µgAAE/mg"}, {"measurement": "inhibition of egg albumin denaturation, rank in words", "setting": "egg albumin; at concentrations above 6.25 µg/mL", "value": "least activity among the fatty acid compounds"}, {"measurement": "IC50", "setting": "[4]", "value": "≥ 160", "unit": "µM"}, {"measurement": "DPPH (IC50 ± SEM)", "setting": "[2]", "value": "49.86 ± 2.29 ^d µg/mL"}]}
{"smiles": "C[C@H]1[C@H](C)CC[C@]2(C(=O)O)CC[C@]3(C)C(=CC[C@@H]4[C@@]5(C)CC[C@H](O)C(C)(C)[C@@H]5CC[C@]43C)[C@H]12", "note": "[Ursolic acid, ursolic acid, reference compound]", "values": [{"measurement": "IC50", "setting": "[4]", "value": 54.3, "unit": "µM"}]}
{"smiles": "CCCCCCCCCCCCCCCCCCC(=O)OCC", "note": "[ethyl nonadecanoate]", "values": [{"measurement": "IC50", "setting": "[4]", "value": "> 153", "unit": "µM"}]}
{"smiles": "CCCCCCCCCCCCCCCCCC(=O)OCC", "note": "[ethyl stearate]", "values": [{"measurement": "IC50", "setting": "[4]", "value": "> 160", "unit": "µM"}]}
